Laboratory results reported in US11554124B2, “Hematopoiesis-enhancing agent” (priority 2018, dated 2023).

What was measured:
[1] = tested on: BM erythroblast subset II; test: RNA sequencing / RT-PCR of BM erythroblast subset II of treated mice; type: in vivo, mouse
Experimental: Total RNA was isolated by using the RNeasy kit (Qiagen) from the sorted sample of bone marrow subset II erythroblasts (PBS; n=4, CLEU; n=4). The quality of the isolated RNA ([…]) was checked using a 2100 bioanalyzer (Agilent), and 250 ng of the RNA was used as input for library preparation in accordance with the manufacturer's instructions using the TruSeq Stranded mRNA Library Prep Kit (Illumina). High-throughput sequencing (51 bp, single-ended) was performed using Hiseq2500 Rapid mode v2 (Illumina). Sequenced reads were mapped to the reference mouse genome (mm9) by using bowtie2 version 2.2.5 and tophat version 2.1.0, and then the abundances of transcripts were estimated by using cufflinks version 2.2.1. Gene expression levels were normalized to the average of fragments per kilobase of transcript per million mapped reads (FPKM) value. Individually expressed genes with FPKM>10 and CV<0.5 (under at least one of the two conditions) were used for further analysis (log2 FC<−0.5 or log2 FC>0.5, P<0.05 within each condition).
For the purpose of elucidating the mechanism of the maturation of erythroblasts induced by CLEU treatment, RNA sequencing analysis of BM erythroblast subset II was performed. […] According to previous reports which had shown the contributory role of CD163 and Apoe in erythropoiesis, up-regulation of CD163 and/or Apoe is necessary for proper use of heme and/or lipid membrane synthesis during the maturation of erythroblasts. […] Considering the fact that abnormalities in globin genes cause the maturation defects in erythroblasts in disorders such as thalassemia, up-regulation of these genes, on the other hand, could be the driving force for the final maturation stage of erythroblasts.

[2] = tested on: DNA CpG methylation; test: Whole genome bisulfite sequencing (WGBS) of bone marrow erythroblast subset II; type: in vivo, mouse; settings: CLEU, BM erythroblast subset II, Day 2, vs PBS
Experimental: DNA was isolated by using phenol/chloroform extraction from sorted sample of bone marrow subset II erythroblasts (PBS; n=2, CLEU; n=2). DNA quality control, bisulfite conversion, library preparation, high-throughput sequencing, and data mapping were performed at Macrogen, Inc. Briefly, TruSeq DNA Methylation Kit and EZ DNA Methylation Gold (Illumina and Zymo Research) were used for library preparation according to the manufacturer's protocol (TruSeq DNA Methylation Library Preparation Guide), followed by high-throughput sequencing by HiseqX (Illumina). After the sequencing run, the raw sequence reads were filtered based on quality, and the adapter sequences were trimmed off. The remaining reads are mapped to the reference genome (mm9) using BSMAP based on SOAP (Short Oligo Alignment Program). SAMBAMBA version 0.5.9 was used to remove index and PCR duplicates, and to select reads with modification. Methylation level was calculated for every single cytosine from mapping results using BSMAP version 2.87. Only cytosine positions with >=5 reads coverage were used for further analysis.
The overall transcriptional changes observed as above could be attributed to epigenetic modification changes due to the reduced abundance of intracellular SAM (Panel A of FIG. 2). […]

[3] = tested on: human cord blood CD34+ cells; test: In vitro erythroid differentiation of human CD34+ umbilical cord blood cells; type: cell-based; settings: CLEU 2.5 mg/ml, differentiation medium 7 days
Experimental: Human CD34^+ umbilical cord blood cells were obtained from the Kanto Koshinetsu Block Blood Center (Tokyo, Japan). The use of cord blood samples for research purposes was approved by the Tohoku University Ethics Committee. The technical details of this method have been described previously. Briefly, CD34^+ umbilical cord blood cells were cultured in growth medium for 5 days, and subsequently, the cells (1×10^5/ml) were cultured in differentiation medium for 7 days. For treatment with CLEU, the concentration thereof was 2.5 mg/ml. As the growth medium, StemMACS HSC Expansion Media XF, human (MACS), supplemented with StemMACS HSC Expansion Cocktail, human (MACS) was used. As the differentiation medium, StemSpan SFEM (STEMCELL) supplemented with hSCF (100 ng/ml; Peprotech), hFLT3-L (33.3 ng/ml; Peprotech), hIL3 (13.3 ng/ml; Peprotech), hBMP4 (13.3 ng/ml; Peprotech), hEPO (2.67 IU/ml; Kyowa Kirin Co., Ltd.), and hydrocortisone (1 μM; Sigma) was used.
Finally, the effect of CLEU on in vitro erythroid cell differentiation conditions of human cord blood CD34^+ cells was investigated.

[4] = tested on: SAM present in erythroblasts; test: Abundance of SAM in bone marrow erythroblasts of treated mice (mass spectrometry); type: in vivo, mouse; settings: CLEU 50 mg/body i.p., bone marrow subset II, Day 2, vs PBS
Experimental: Wild-type mice with a genetic background of C57BL/6J were purchased from Charles River Laboratories, Inc. Mice at 8 to 14 weeks of age were used for analysis. For CLEU treatment (50 mg/body), a solution of cycloleucine (CLEU) was prepared by diluting cycloleucine (CLEU) (Sigma) in PBS (50 mg/ml), and 1 ml of the CLEU solution was administered intraperitoneally. For AKBA treatment (2 mg/body), 2 mg AKBA (Enzo Life Sciences)/20% DMSO/1 mL PBS solution was administered intraperitoneally. Vehicle without AKBA was used as a control. For measuring complete blood count of peripheral blood, peripheral blood was collected from facial veins and counted by use of an automated animal blood cell counter (microsemi LC-662). All of the experiments conducted in this study were approved by the Animal Experiment Committee of the Environmental Safety Committee of Tohoku University. BM cells and spleen cells were harvested in a conventional manner. Cells were stained with combinations of antibodies specific to erythroblasts and mature cells, to thereby identify them. The cells were visualized with antibody and streptavidin-peridinin chlorophyll protein-cyanin 5.5. […] Flow cytometric analysis and cell sorting were performed according to the manufacturer's protocol using FACS AriaII (BD), and then the obtained data were analyzed using FlowJo software (TreeStar). […]

[5] = CLEU, subset II, Day 2, RT-PCR normalized to Actb

In the case of `NC1(C(=O)O)CCCC1` [CLEU, cycloleucine], the “number of genes identified as significantly up-regulated” value ([1]; CLEU, BM erythroblast subset II, Day 2, RNA sequencing, vs PBS) is reported as 72 genes, the “expression of Gata1, Tal1, and Klf1” value ([1]; CLEU, BM erythroblast subset II, Day 2, vs PBS) is reported as “significantly down-regulated” and the “expression of Myb, Cited2 and H1f0” value [1, 5] is reported as “significantly up-regulated”. The “expression of hemoglobin-related genes, CD163 and Apoe (validation analysis)” value [1, 5] was “significantly up-regulated”, the “expression levels of several histone methyltransferase” value ([1]; CLEU, subset II, RNA sequencing) was “significantly down-regulated” and the “expression of globin genes” value ([1]; CLEU-treated erythroblasts, subset II, Day 2) was “most heavily expressed”. The “reduction of DNA CpG methylation overall” value [2] was “about 2%”, the “erythroid differentiation and maturation of human cord blood CD34+ cells” value [3] was “induce not only erythroid differentiation but also maturation” and the “abundance of SAM present in erythroblasts” value [4] was “reduce the abundance of SAM”.
